Experiment [1] deals with ATP-dependent translocase ABCB1 (Homo sapiens, UniProt P08183). The experiment is described as follows: Evaluated for inhibition of growth of CEM/VLB1000 cell line using multidrug resistance (MDR) potentiation assay.
Experiment [2] relates to MES-SA/Dx5. The experiment is described as follows: Compound (1 uM) was evaluated for the inhibition of cell growth in MES-SA/DX5** cell line (over expresses Pgp and is for Doxorubicin resistant) in the presence of taxol. It counts as functional. To be noted: Homo sapiens, read-out: ED50 (the source's name).
Experiment [3] deals with NCI/ADR-RES. Nature of the experiment: Compound (1 uM) was evaluated for the inhibition of cell growth in MCF-7/ADR* cell line (over expresses Pgp and is for Doxorubicin resistant) in the presence of Taxol. The class given is functional. To be noted: Homo sapiens, read-out: ED50 (the source's name).
For experiment [4], the system named is MES-SA/Dx5. Nature of the experiment: Compound (1 uM) was evaluated for the inhibition of cell growth in MES-SA/DX5** cell line (over expresses Pgp and is for Doxorubicin resistant) in the presence of doxorubicin. It counts as functional. To be noted: Homo sapiens, read-out: ED50 (the source's name).
In experiment [5] the test system is NCI/ADR-RES. Nature of the experiment: Compound (1 uM) was evaluated for the inhibition of cell growth in MCF-7/ADR* cell line (over expresses Pgp and is for Doxorubicin resistant) in the presence of vinblastine. It counts as functional. The conditions noted are these: Homo sapiens, read-out: ED50 (the source's name).
For experiment [6], the system named is NCI/ADR-RES. Nature of the experiment: Compound (1 uM) was evaluated for the inhibition of cell growth in MCF-7/ADR cell line (over expresses Pgp and is for Doxorubicin resistant) in the presence of vinblastine. It counts as functional. To be noted: Homo sapiens, read-out: ED50 (the source's name).
Experiment [7] relates to NCI/ADR-RES. The experiment is described as follows: Compound (1 uM) was evaluated for the inhibition of cell growth in MCF-7/ADR cell line (over expresses Pgp and is for Doxorubicin resistant) in the presence of Taxol. The class given is functional. To be noted: Homo sapiens, read-out: ED50 (the source's name).
Experiment [8] deals with MES-SA/Dx5. The experiment is described as follows: Compound (1 uM) was evaluated for the inhibition of cell growth in MES-SA/DX5 cell line (over expresses Pgp and is for Doxorubicin resistant) in the presence of taxol. The conditions noted are these: Homo sapiens, read-out: ED50 (the source's name). The class given is functional.
Experiment [9] relates to MES-SA/Dx5. The experiment is described as follows: Compound (1 uM) was evaluated for the inhibition of cell growth in MES-SA/DX5 cell line (over expresses Pgp and is Doxorubicin resistant) in the presence of doxorubicin. It counts as functional. To be noted: Homo sapiens, read-out: ED50 (the source's name).

ATP-dependent translocase ABCB1, sequence (P08183 whole entry): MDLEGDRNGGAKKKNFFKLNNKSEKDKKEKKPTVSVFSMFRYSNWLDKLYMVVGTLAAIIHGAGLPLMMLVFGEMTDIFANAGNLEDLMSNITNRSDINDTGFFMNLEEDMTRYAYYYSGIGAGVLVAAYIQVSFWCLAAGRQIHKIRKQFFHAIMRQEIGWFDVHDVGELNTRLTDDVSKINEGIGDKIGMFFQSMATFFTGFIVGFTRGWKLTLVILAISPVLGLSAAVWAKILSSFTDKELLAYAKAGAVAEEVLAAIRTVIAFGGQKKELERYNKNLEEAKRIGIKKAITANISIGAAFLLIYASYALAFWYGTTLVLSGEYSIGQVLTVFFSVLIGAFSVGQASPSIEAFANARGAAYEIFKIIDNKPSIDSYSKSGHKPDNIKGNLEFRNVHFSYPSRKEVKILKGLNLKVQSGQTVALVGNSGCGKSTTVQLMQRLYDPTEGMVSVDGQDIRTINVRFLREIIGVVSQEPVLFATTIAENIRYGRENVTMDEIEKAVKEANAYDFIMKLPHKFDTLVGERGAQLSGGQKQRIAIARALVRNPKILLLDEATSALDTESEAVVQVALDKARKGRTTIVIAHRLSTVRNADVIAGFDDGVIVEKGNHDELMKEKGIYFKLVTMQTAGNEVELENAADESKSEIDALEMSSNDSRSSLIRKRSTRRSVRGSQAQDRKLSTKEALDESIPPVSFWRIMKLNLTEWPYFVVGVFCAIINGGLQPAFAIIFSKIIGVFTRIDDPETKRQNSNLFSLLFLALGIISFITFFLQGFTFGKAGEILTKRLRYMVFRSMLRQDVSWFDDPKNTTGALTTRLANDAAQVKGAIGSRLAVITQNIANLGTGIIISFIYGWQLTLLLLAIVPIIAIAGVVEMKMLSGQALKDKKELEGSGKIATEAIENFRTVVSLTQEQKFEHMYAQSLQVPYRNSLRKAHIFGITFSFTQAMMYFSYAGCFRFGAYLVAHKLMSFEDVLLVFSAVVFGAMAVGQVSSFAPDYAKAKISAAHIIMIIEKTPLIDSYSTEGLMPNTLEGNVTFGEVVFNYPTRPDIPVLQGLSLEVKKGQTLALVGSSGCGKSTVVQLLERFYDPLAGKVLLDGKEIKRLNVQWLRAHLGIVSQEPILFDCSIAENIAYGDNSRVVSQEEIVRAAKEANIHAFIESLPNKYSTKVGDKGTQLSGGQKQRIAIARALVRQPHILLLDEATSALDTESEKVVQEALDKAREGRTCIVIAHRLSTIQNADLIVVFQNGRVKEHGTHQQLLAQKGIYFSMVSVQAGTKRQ

Consider `COCCCc1ccc(-c2nc(-c3ccc(N(C)C)cc3)c(-c3ccc(N(C)C)cc3)[nH]2)cc1`, for which the GI50 in experiment [1] (read-out: ED50) was determined as 300 nM.

Turning to `CN(C)c1ccc(-c2nc(-c3ccc(/C=C/C(=O)O)cc3)n(CCc3ccccc3)c2-c2ccc(N(C)C)cc2)cc1`, the GI50 in [1] (read-out: ED50) is 20000 nM.

With `CN(C)c1ccc(-c2nc(-c3ccc(/C=C/C#N)cc3)[nH]c2-c2ccc(N(C)C)cc2)cc1`, the GI50 in experiment [1] (read-out: ED50) is 600 nM.

`CN(C)c1ccc(-c2nc(-c3ccc(/C=C/COc4ccccc4)cc3)[nH]c2-c2ccc(N(C)C)cc2)cc1`: the GI50 in experiment [1] (read-out: ED50) came to 450 nM.

In the case of `CN(C)c1ccc(-c2nc(-c3ccc(C(=O)O)cc3)[nH]c2-c2ccc(N(C)C)cc2)cc1`, the GI50 in experiment [1] (read-out: ED50) turned out to be 60000 nM.

With `CN(C)C/C=C/c1ccc(-c2nc(-c3ccc(N(C)C)cc3)c(-c3ccc(N(C)C)cc3)[nH]2)cc1`, in experiment [1] (read-out: ED50), the GI50 was determined as 1300 nM.

For the compound `CN(C)c1ccc(-c2nc(-c3ccc(O)cc3)n(CCc3ccccc3)c2-c2ccc(N(C)C)cc2)cc1`, the GI50 in experiment [1] (read-out: ED50) was determined as 1000 nM.

`CN(C)c1ccc(-c2nc(-c3ccc(C(=O)O)cc3)n(CCc3ccccc3)c2-c2ccc(N(C)C)cc2)cc1`: in experiment [1] (read-out: ED50), the GI50 was 10000 nM.

Consider `CN(C)c1ccc(-c2nc(-c3ccc(/C=C/C(=O)O)cc3)[nH]c2-c2ccc(N(C)C)cc2)cc1`, for which the GI50 in experiment [1] (read-out: ED50) came out at 10000 nM.

As for `CCN(CC)C(=O)OC/C=C/c1ccc(-c2nc(-c3ccc(N(C)C)cc3)c(-c3ccc(N(C)C)cc3)[nH]2)cc1`, the GI50 in [1] is 880 nM.

As for `COc1ccc(CCN(C)CCCC(C#N)(c2ccc(OC)c(OC)c2)C(C)C)cc1OC` (stereo unspecified), the EC50 with MES-SA/Dx5 [2] is 2.5 µg/mL; in the experiment with NCI/ADR-RES [3], 2.5 µg/mL; in the experiment with MES-SA/Dx5 [4], 3 µg/mL; in the experiment with NCI/ADR-RES [5] it was 0.251 µg/mL.

In the case of `CCCCC(=O)OC/C=C/c1ccc(-c2nc(-c3ccc(N(C)C)cc3)c(-c3ccc(N(C)C)cc3)[nH]2)cc1`, in experiment [1] (read-out: ED50), the GI50 is 480 nM.

For `COC(=O)C1CC1c1ccc(-c2nc(-c3ccc(N(C)C)cc3)c(-c3ccc(N(C)C)cc3)[nH]2)cc1` (stereo unspecified), in experiment [1] (read-out: ED50), the GI50 is 310 nM.

Regarding `COC(=O)/C=C/c1ccc(-c2nc(-c3ccc(N(C)C)cc3)c(-c3ccc(N(C)C)cc3)[nH]2)cc1`, in experiment [1] (read-out: ED50), the GI50 came to 300 nM.

With `CN(C)c1ccc(-c2nc(-c3ccc(/C=C/COCc4ccccc4)cc3)[nH]c2-c2ccc(N(C)C)cc2)cc1`, in experiment [1] (read-out: ED50), the GI50 is 300 nM.

For the compound `COCCCCc1ccc(-c2nc(-c3ccc(N(C)C)cc3)c(-c3ccc(N(C)C)cc3)[nH]2)cc1`, the GI50 in experiment [1] (read-out: ED50) worked out at 1100 nM.

On to `CCCCOC/C=C/c1ccc(-c2nc(-c3ccc(N(C)C)cc3)c(-c3ccc(N(C)C)cc3)[nH]2)cc1`, for which the GI50 in [1] came out at 110 nM.

With `COCCOC/C=C/c1ccc(-c2nc(-c3ccc(N(C)C)cc3)c(-c3ccc(N(C)C)cc3)[nH]2)cc1`, the GI50 in experiment [1] (read-out: ED50) was found to be 90 nM.

As for `CC(C)OC(=O)/C=C/c1ccc(-c2nc(-c3ccc(N(C)C)cc3)c(-c3ccc(N(C)C)cc3)[nH]2)cc1`, the EC50 with MES-SA/Dx5 [2] was 0.13 µg/mL; in the experiment with NCI/ADR-RES [3], 0.15 µg/mL; with MES-SA/Dx5 [4], 0.34 µg/mL; with NCI/ADR-RES [5] it was 0.028 µg/mL.

`COC/C=C/c1ccc(-c2nc(-c3ccc(N(C)C)cc3)c(-c3ccc(N(C)C)cc3)[nH]2)cc1`: in experiment [1] (read-out: ED50), the GI50 was 130 nM.

Turning to `COC(=O)CCc1ccc(-c2nc(-c3ccc(N(C)C)cc3)c(-c3ccc(N(C)C)cc3)[nH]2)cc1`, in [1] (read-out: ED50), the GI50 turned out to be 1000 nM.

Regarding `CN(C)c1ccc(-c2nc(-c3ccc(O)cc3)[nH]c2-c2ccc(N(C)C)cc2)cc1`, in experiment [1] (read-out: ED50), the GI50 is 5000 nM.

Consider `CCCCCCn1c(-c2ccc(C(=O)OC)cc2)nc(-c2ccc(N(C)C)cc2)c1-c1ccc(N(C)C)cc1`, for which, in experiment [1], the GI50 came out at 6000 nM.

As for `CCCCCCn1c(-c2ccc(C(=O)O)cc2)nc(-c2ccc(N(C)C)cc2)c1-c1ccc(N(C)C)cc1`, the GI50 in experiment [1] (read-out: ED50) was 2000 nM.

Turning to `CCOC/C=C/c1ccc(-c2nc(-c3ccc(N(C)C)cc3)c(-c3ccc(N(C)C)cc3)[nH]2)cc1`, the GI50 in experiment [1] (read-out: ED50) was determined as 80 nM. Also, the EC50 in the experiment with NCI/ADR-RES [6] came to 0.01 µg/mL; in the experiment with NCI/ADR-RES [7], 0.036 µg/mL; in the experiment on MES-SA/Dx5 [8] it was 0.024 µg/mL; in the experiment with MES-SA/Dx5 [9], 0.089 µg/mL.

For `COC(=O)c1ccc(-c2nc(-c3ccc(N(C)C)cc3)c(-c3ccc(N(C)C)cc3)[nH]2)cc1`, the GI50 in experiment [1] (read-out: ED50) came out at 600 nM.

The values are drawn from ChEMBL document CHEMBL1132821, “2,4,5-Trisubstituted imidazoles: novel nontoxic modulators of P-glycoprotein mediated multidrug resistance. Part 1” (Bioorg Med Chem Lett, 2000).
